Measurements as given in ChEMBL document CHEMBL1157528, “Mixed tetraoxanes containing the acetone subunit as antimalarials” (Bioorg Med Chem, 2008).
Calls of active or inactive are those of the source. The rule behind the calls is not given here.

Legend:
Plasmodium falciparum [1] = assay: microbe, parasite or virus in culture; settings: RCS
Description: Antimalarial activity against chloroquine-resistant, mefloquine-sensitive Plasmodium falciparum RCS

Plasmodium falciparum [2] = assay: microbe, parasite or virus in culture; settings: D6
Description: Antimalarial activity against chloroquine and pyrimethamine-sensitive Plasmodium falciparum D6

Plasmodium berghei [3] = assay: Antimalarial activity as survival time in Plasmodium berghei KBG173 infected CD1 mice (Mus musculus) at 20 mg/kg/day peroral dose; assay type: functional; settings: route oral
Plasmodium berghei [4] = assay: Antimalarial activity as reduced parasitaemia after 13 days against Plasmodium berghei KBG173 infected CD1 mice (Mus musculus) at 20 mg/kg/day subcutaneous dose; assay type: functional; parameters: scale not given: the % may be the effect or the level left
Plasmodium falciparum [5] = assay: microbe, parasite or virus in culture; settings: W2
Description: Antimalarial activity against chloroquine and pyrimethamine-resistant Plasmodium falciparum W2

Plasmodium berghei [6] = assay: Antimalarial activity as reduced parasitaemia after 13 days against Plasmodium berghei KBG173 infected CD1 mice (Mus musculus) at 40 mg/kg/day subcutaneous dose; assay type: functional; parameters: scale not given: the % may be the effect or the level left
Plasmodium berghei [7] = assay: Antimalarial activity as reduced parasitaemia after 31 days against Plasmodium berghei KBG173 infected CD1 mice (Mus musculus) at 320 mg/kg/day peroral dose; assay type: functional; parameters: scale not given: the % may be the effect or the level left; settings: route oral
[8] = Metabolic stability in human liver microsomes assessed as half life at 10 uM; assay type: ADME, Microsome
Plasmodium berghei [9] = assay: Antimalarial activity as parasite-free survivors at day 31 of Plasmodium berghei KBG173 infected CD1 mice (Mus musculus) at 20 mg/kg/day peroral dose; assay type: functional, organism-based
Plasmodium berghei [10] = assay: Antimalarial activity as reduced parasitaemia after 27 days against Plasmodium berghei KBG173 infected CD1 mice (Mus musculus) at 40 mg/kg/day subcutaneous dose; assay type: functional; parameters: scale not given: the % may be the effect or the level left
Plasmodium berghei [11] = assay: Antimalarial activity as survival time against Plasmodium berghei KBG173 infected CD1 mice (Mus musculus) at 160 mg/kg/day subcutaneous dose; assay type: functional
Plasmodium berghei [12] = assay: Antimalarial activity as survival time in Plasmodium berghei KBG173 infected CD1 mice (Mus musculus) at 320 mg/kg/day peroral dose; assay type: functional; settings: route oral
Plasmodium berghei [13] = assay: Antimalarial activity as survival time against Plasmodium berghei KBG173 infected CD1 mice (Mus musculus) at 80 mg/kg/day subcutaneous dose; assay type: functional
Plasmodium berghei [14] = assay: Antimalarial activity as reduced parasitaemia after 17 days against Plasmodium berghei KBG173 infected CD1 mice (Mus musculus) at 20 mg/kg/day subcutaneous dose; assay type: functional; parameters: scale not given: the % may be the effect or the level left
Plasmodium berghei [15] = assay: Antimalarial activity as reduced parasitaemia after 24 days against Plasmodium berghei KBG173 infected CD1 mice (Mus musculus) at 40 mg/kg/day subcutaneous dose; assay type: functional; parameters: scale not given: the % may be the effect or the level left
Plasmodium berghei [16] = assay: Antimalarial activity as reduced parasitaemia after 17 days against Plasmodium berghei KBG173 infected CD1 mice (Mus musculus) at 40 mg/kg/day subcutaneous dose; assay type: functional; parameters: scale not given: the % may be the effect or the level left
Plasmodium falciparum [17] = assay: Relative activity against Plasmodium falciparum W2 as ratio of IC90 to IC50; assay type: functional
Plasmodium berghei [18] = assay: Antimalarial activity as reduced parasitaemia after 31 days against Plasmodium berghei KBG173 infected CD1 mice (Mus musculus) at 40 mg/kg/day subcutaneous dose; assay type: functional; parameters: scale not given: the % may be the effect or the level left
Plasmodium berghei [19] = assay: Antimalarial activity against Plasmodium berghei KBG173 infected CD1 mice (Mus musculus) assessed as survival time at 80 mg/kg/day, subcutaneously administered on day 3 twice a day; assay type: functional; settings: route subcutaneous
Plasmodium berghei [20] = assay: Antimalarial activity as parasite-free survivors at day 31 of Plasmodium berghei KBG173 infected CD1 mice (Mus musculus) at 20 mg/kg/day subcutaneous dose; assay type: functional, organism-based
Plasmodium berghei [21] = assay: Antimalarial activity as reduced parasitaemia after 24 days against Plasmodium berghei KBG173 infected CD1 mice (Mus musculus) at 320 mg/kg/day peroral dose; assay type: functional; parameters: scale not given: the % may be the effect or the level left; settings: route oral
Plasmodium falciparum [22] = assay: microbe, parasite or virus in culture; settings: TM91C235
Description: Antimalarial activity against mefloquine, chloroquine and quinine-resistant Plasmodium falciparum TM91C235

Plasmodium berghei [23] = assay: Antimalarial activity as reduced parasitaemia at day 6 in Plasmodium berghei KBG173 infected CD1 mice (Mus musculus) at 20 mg/kg/day subcutaneous dose; assay type: functional; parameters: scale not given: the % may be the effect or the level left
Plasmodium berghei [24] = assay: Antimalarial activity as reduced parasitaemia after 10 days against Plasmodium berghei KBG173 infected CD1 mice (Mus musculus) at 20 mg/kg/day subcutaneous dose; assay type: functional; parameters: scale not given: the % may be the effect or the level left
Plasmodium berghei [25] = assay: Antimalarial activity as reduced parasitaemia after 10 days against Plasmodium berghei KBG173 infected CD1 mice (Mus musculus) at 40 mg/kg/day subcutaneous dose; assay type: functional; parameters: scale not given: the % may be the effect or the level left
[26] = Cytotoxicity against human NCI60 cells; assay type: functional
Plasmodium berghei [27] = assay: Antimalarial activity as reduced parasitaemia after 20 days against Plasmodium berghei KBG173 infected CD1 mice (Mus musculus) at 40 mg/kg/day subcutaneous dose; assay type: functional; parameters: scale not given: the % may be the effect or the level left
Plasmodium berghei [28] = assay: Antimalarial activity as parasite-free survivors at day 31 of Plasmodium berghei KBG173 infected CD1 mice (Mus musculus) at 160 mg/kg/day subcutaneous dose; assay type: functional, organism-based
Plasmodium berghei [29] = assay: Antimalarial activity as survival time against Plasmodium berghei KBG173 infected CD1 mice (Mus musculus) at 80 mg/kg/day peroral dose 3 - 5 days post infection; assay type: functional; settings: route oral
Plasmodium berghei [30] = assay: Antimalarial activity as reduced parasitaemia at day 20 against Plasmodium berghei KBG173 infected CD1 mice (Mus musculus) at 320 mg/kg/day peroral dose; assay type: functional; parameters: scale not given: the % may be the effect or the level left; settings: route oral
Plasmodium berghei [31] = assay: Antimalarial activity as reduced parasitaemia after 27 days against Plasmodium berghei KBG173 infected CD1 mice (Mus musculus) at 320 mg/kg/day peroral dose; assay type: functional; parameters: scale not given: the % may be the effect or the level left; settings: route oral
[32] = Metabolic stability in mouse liver microsomes assessed as half life at 10 uM; assay type: ADME, Microsome
Plasmodium berghei [33] = assay: Antimalarial activity as reduced parasitaemia at day 17 against Plasmodium berghei KBG173 infected CD1 mice (Mus musculus) at 320 mg/kg/day peroral dose; assay type: functional; parameters: scale not given: the % may be the effect or the level left; settings: route oral
Plasmodium berghei [34] = assay: Antimalarial activity as parasite-free survivors at day 31 of Plasmodium berghei KBG173 infected CD1 mice (Mus musculus) at 320 mg/kg/day peroral dose; assay type: functional, organism-based
Plasmodium falciparum [35] = assay: Relative activity against Plasmodium falciparum TM91C235 as fold-lower IC90/IC50 ratio relative to mefloquine

SMILES: CCN(CC)CCCC(C)Nc1ccnc2cc(Cl)ccc12 (stereo unspecified) [CHLOROQUINE]
- IC90 (Plasmodium falciparum [1]): 397 nM
- IC90 (Plasmodium falciparum [2]): 17.6 nM

SMILES: CC(=O)O[C@H]1C[C@H]2[C@@H]([C@H](OC(C)=O)C[C@@H]3CC4(CC[C@@]32C)OOC(C)(C)OO4)[C@@H]2CC[C@H]([C@H](C)CCC(=O)NCCN(C)C)[C@@]12C
- Survival (Plasmodium berghei [3]): 8 days
- Activity (Plasmodium berghei [4]): 8.72%
- IC50 (Plasmodium falciparum [5]): 9.79 nM
- IC90 (Plasmodium falciparum [5]): 16.8 nM
- Activity (Plasmodium berghei [6]): 0.004%
- Activity (Plasmodium berghei [7]): 0%
- half-life at 10 µM [8]: > 60 min
- Activity (Plasmodium berghei [9]): inactive
- Activity (Plasmodium berghei [10]): 0%
- Survival (Plasmodium berghei [11]): 31 days
- Survival (Plasmodium berghei [12]): 29 days
- Survival (Plasmodium berghei [13]): 25 days
- Activity (Plasmodium berghei [14]): 26.8%
- Activity (Plasmodium berghei [15]): 12.53%
- Activity (Plasmodium berghei [16]): 15.48%
- Ratio (Plasmodium falciparum [17]): 1.71
- Activity (Plasmodium berghei [18]): 0%
- Survival (Plasmodium berghei [19]): 16 days
- Activity (Plasmodium berghei [20]): inactive
- Activity (Plasmodium berghei [21]): 1.4%
- IC50 (Plasmodium falciparum [2]): 11.6 nM
- IC90 (Plasmodium falciparum [2]): 26.2 nM
- IC50 (Plasmodium falciparum [22]): 7.16 nM
- IC90 (Plasmodium falciparum [22]): 19.8 nM
- Activity (Plasmodium berghei [23]): 0.002%
- Activity (Plasmodium berghei [24]): 0.032%
- Activity (Plasmodium berghei [25]): 0%
- GI50 [26]: 3390 nM
- LC50 [26]: 22400 nM
- TGI [26]: 10200 nM
- Activity (Plasmodium berghei [27]): 3.9%
- Activity (Plasmodium berghei [28]): Active
- Survival (Plasmodium berghei [29]): 14 days
- Activity (Plasmodium berghei [30]): 1.9%
- Activity (Plasmodium berghei [31]): 0%
- half-life at 10 µM [32]: > 60 min
- Activity (Plasmodium berghei [33]): 2.36%

SMILES: COC(=O)CC[C@@H](C)[C@H]1CC[C@H]2[C@@H]3[C@H](OC(C)=O)C[C@@H]4CC5(CC[C@]4(C)[C@H]3C[C@H](OC(C)=O)[C@]12C)OOC(C)(C)OO5
- Survival (Plasmodium berghei [3]): 13 days
- IC50 (Plasmodium falciparum [5]): 11.7 nM
- IC90 (Plasmodium falciparum [5]): 20.7 nM
- Activity (Plasmodium berghei [9]): inactive
- Survival (Plasmodium berghei [12]): 18 days
- Activity (Plasmodium berghei [34]): inactive
- IC50 (Plasmodium falciparum [2]): 15 nM
- IC90 (Plasmodium falciparum [2]): 26.7 nM
- IC50 (Plasmodium falciparum [22]): 26 nM
- IC90 (Plasmodium falciparum [22]): 57.3 nM
- Survival (Plasmodium berghei [29]): 16 days

SMILES: CC(=O)O[C@H]1C[C@H]2[C@@H]([C@H](OC(C)=O)C[C@@H]3CC4(CC[C@@]32C)OOC(C)(C)OO4)[C@@H]2CC[C@H]([C@H](C)CCC(=O)NN)[C@@]12C
- IC50 (Plasmodium falciparum [5]): 16.4 nM
- IC90 (Plasmodium falciparum [5]): 22.9 nM
- IC50 (Plasmodium falciparum [1]): 7.03 nM
- IC90 (Plasmodium falciparum [1]): 19.5 nM
- IC50 (Plasmodium falciparum [2]): 28.1 nM
- IC90 (Plasmodium falciparum [2]): 46.3 nM
- IC50 (Plasmodium falciparum [22]): 28.5 nM
- IC90 (Plasmodium falciparum [22]): 38.1 nM

SMILES: COC(=O)CNC(=O)CC[C@@H](C)[C@H]1CC[C@H]2[C@@H]3[C@H](OC(C)=O)C[C@@H]4CC5(CC[C@]4(C)[C@H]3C[C@H](OC(C)=O)[C@]12C)OOC(C)(C)OO5
- IC50 (Plasmodium falciparum [5]): 5.98 nM
- half-life at 10 µM [8]: 70 min
- IC50 (Plasmodium falciparum [2]): 14.3 nM
- GI50 [26]: 8510 nM
- LC50 [26]: 77600 nM
- TGI [26]: 33900 nM
- half-life at 10 µM [32]: 32 min

SMILES: CC(=O)O[C@H]1C[C@H]2[C@@H]([C@H](OC(C)=O)C[C@@H]3CC4(CC[C@@]32C)OOC(C)(C)OO4)[C@@H]2CC[C@H]([C@H](C)CCC(=O)Nc3ccccc3)[C@@]12C
- Survival (Plasmodium berghei [3]): 23 days
- IC50 (Plasmodium falciparum [5]): 5.02 nM
- IC90 (Plasmodium falciparum [5]): 14.3 nM
- half-life at 10 µM [8]: 19 min
- Survival (Plasmodium berghei [12]): 23 days
- IC50 (Plasmodium falciparum [1]): 1.89 nM
- IC90 (Plasmodium falciparum [1]): 4.45 nM
- IC50 (Plasmodium falciparum [2]): 6.97 nM
- IC90 (Plasmodium falciparum [2]): 20.8 nM
- IC50 (Plasmodium falciparum [22]): 15.8 nM
- IC90 (Plasmodium falciparum [22]): 20.9 nM
- Survival (Plasmodium berghei [29]): 25 days
- half-life at 10 µM [32]: 16 min
- fold-lower IC90/IC50 ratio vs mefloquine (Plasmodium falciparum [35]): 3

SMILES: CC(=O)O[C@H]1C[C@H]2[C@@H]([C@H](OC(C)=O)C[C@@H]3CC4(CC[C@@]32C)OOC(C)(C)OO4)[C@@H]2CC[C@H]([C@H](C)CCC(N)=O)[C@@]12C
- IC50 (Plasmodium falciparum [5]): 9.4 nM
- half-life at 10 µM [8]: > 60 min
- IC50 (Plasmodium falciparum [2]): 12.2 nM
- GI50 [26]: 8710 nM
- LC50 [26]: 79400 nM
- TGI [26]: 34700 nM
- half-life at 10 µM [32]: > 60 min
